# Patent US20200370087A1, “METHOD FOR DETERMINING MICROBIAL SUSCEPTIBILITY TO ANTIBIOTIC AGENTS” (Ascilion AB, priority 2017, published 2020)
# Key:
# [1] = test system: Escherichia coli (ATCC 25922); test: Glucose consumption susceptibility test, blood culture diluted in MHB with glucose (Example 1); type: cell-based; parameters: glucose concentration, t = 0 / glucose concentration, t = 60 / glucose concentration, t = 120 / glucose concentration, t = 180 / dC/dT (rate of change in glucose concentration) / glucose concentration, t = 240: unit not given here; conditions: for F = the rate of change in glucose concentration in relation to the reference / dC/dT (rate of change in glucose concentration) / glucose concentration, t = 0 / glucose concentration, t = 60 / glucose concentration, t = 120 / glucose concentration, t = 180 / glucose concentration, t = 240: E. coli; for glucose concentration, t = 0: 0 minutes; for glucose concentration, t = 60: 60 minutes; for glucose concentration, t = 120: 120 minutes; for glucose concentration, t = 180: 180 minutes; for glucose concentration, t = 240: 240 minutes
# Description: Strains of Escherichia coli (ATCC 25922), Enterococcus faecalis (ATCC 29212) and Staphylococcus aureus (ATCC 29213) were inoculated in blood culture bottles (SVA, Uppsala, Sweden) and cultivated according to the manufacturer's instructions until positive.
# Medium from each blood culture bottle was diluted 1:100 with cation adjusted Mueller-Hinton broth (SVA, Uppsala, Sweden) supplemented with glucose to a concentration of 1.0 mg/mL.
# Glucose concentrations were measured at 0, 60, 120, 180, and 240 minutes using a WaveSense Jazz glucometer (AgaMatrix, Inc., Salem, N.H., USA) with accompanying test strips.
# Susceptibility scores corresponding to MIC values were calculated as described above. A 80% threshold was applied, i.e. the lowest concentration of antibiotic that entailed a rate of change in glucose concentration that was equal to or less than 80% of the reference was selected as the Minimal Inhibitory Concentration. The rate of change was calculated between the measurements at 60 and 180 minutes.
# [2] = test system: Escherichia coli ATCC 25922; conditions: E.coli, cited from earlier work
# [3] = test system: Enterococcus faecalis ATCC 29212; conditions: E.faecalis, cited from earlier work
# [4] = range obtained by EUCAST from ISO 20776-1: 2006
# [5] = reference value, Mueller-Hinton agar, incubation 18±2 h, N/A = not susceptible
compound,measurement,setting,value
"CO[C@@]1(NC(=O)Cc2cccs2)C(=O)N2C(C(=O)O)=C(COC(N)=O)CS[C@@H]21 [Cefoxitin, cefoxitin]",F = the rate of change in glucose concentration in relation to the reference,[1]; antibiotic 0.25 μg/mL,165%
same,dC/dT (rate of change in glucose concentration),[1]; antibiotic 0.25 μg/mL,102
same,"glucose concentration, t = 0",[1]; antibiotic 0.25 μg/mL,145
same,"glucose concentration, t = 60",[1]; antibiotic 0.25 μg/mL,157
same,"glucose concentration, t = 120",[1]; antibiotic 0.25 μg/mL,143
same,"glucose concentration, t = 180",[1]; antibiotic 0.25 μg/mL,41
same,F = the rate of change in glucose concentration in relation to the reference,[1]; antibiotic 0.5 μg/mL,139%
same,dC/dT (rate of change in glucose concentration),[1]; antibiotic 0.5 μg/mL,86
same,"glucose concentration, t = 0",[1]; antibiotic 0.5 μg/mL,139
same,"glucose concentration, t = 60",[1]; antibiotic 0.5 μg/mL,154
same,"glucose concentration, t = 120",[1]; antibiotic 0.5 μg/mL,140
same,"glucose concentration, t = 180",[1]; antibiotic 0.5 μg/mL,54
same,F = the rate of change in glucose concentration in relation to the reference,[1]; antibiotic 1 μg/mL,129%
same,dC/dT (rate of change in glucose concentration),[1]; antibiotic 1 μg/mL,80
same,"glucose concentration, t = 0",[1]; antibiotic 1 μg/mL,144
same,"glucose concentration, t = 60",[1]; antibiotic 1 μg/mL,150
same,"glucose concentration, t = 120",[1]; antibiotic 1 μg/mL,143
same,"glucose concentration, t = 180",[1]; antibiotic 1 μg/mL,63
same,F = the rate of change in glucose concentration in relation to the reference,[1]; antibiotic 2 μg/mL,102%
same,dC/dT (rate of change in glucose concentration),[1]; antibiotic 2 μg/mL,63
same,"glucose concentration, t = 0",[1]; antibiotic 2 μg/mL,143
same,"glucose concentration, t = 60",[1]; antibiotic 2 μg/mL,163
same,"glucose concentration, t = 120",[1]; antibiotic 2 μg/mL,138
same,"glucose concentration, t = 180",[1]; antibiotic 2 μg/mL,75
same,F = the rate of change in glucose concentration in relation to the reference,[1]; antibiotic 4 μg/mL,19%
same,dC/dT (rate of change in glucose concentration),[1]; antibiotic 4 μg/mL,12
same,"glucose concentration, t = 0",[1]; antibiotic 4 μg/mL,146
same,"glucose concentration, t = 60",[1]; antibiotic 4 μg/mL,149
same,"glucose concentration, t = 120",[1]; antibiotic 4 μg/mL,140
same,"glucose concentration, t = 180",[1]; antibiotic 4 μg/mL,125
same,"glucose concentration, t = 240",[1]; antibiotic 4 μg/mL,116
same,F = the rate of change in glucose concentration in relation to the reference,[1]; antibiotic 8 μg/mL,18%
same,dC/dT (rate of change in glucose concentration),[1]; antibiotic 8 μg/mL,11
same,"glucose concentration, t = 0",[1]; antibiotic 8 μg/mL,145
same,"glucose concentration, t = 60",[1]; antibiotic 8 μg/mL,164
same,"glucose concentration, t = 120",[1]; antibiotic 8 μg/mL,149
same,"glucose concentration, t = 180",[1]; antibiotic 8 μg/mL,132
same,"glucose concentration, t = 240",[1]; antibiotic 8 μg/mL,127
same,F = the rate of change in glucose concentration in relation to the reference,[1]; antibiotic 16 μg/mL,6%
same,dC/dT (rate of change in glucose concentration),[1]; antibiotic 16 μg/mL,4
same,"glucose concentration, t = 0",[1]; antibiotic 16 μg/mL,142
same,"glucose concentration, t = 60",[1]; antibiotic 16 μg/mL,152
same,"glucose concentration, t = 120",[1]; antibiotic 16 μg/mL,152
same,"glucose concentration, t = 180",[1]; antibiotic 16 μg/mL,141
same,"glucose concentration, t = 240",[1]; antibiotic 16 μg/mL,145
same,F = the rate of change in glucose concentration in relation to the reference,[1]; antibiotic 32 μg/mL,5%
same,dC/dT (rate of change in glucose concentration),[1]; antibiotic 32 μg/mL,3
same,"glucose concentration, t = 0",[1]; antibiotic 32 μg/mL,146
same,"glucose concentration, t = 60",[1]; antibiotic 32 μg/mL,150
same,"glucose concentration, t = 120",[1]; antibiotic 32 μg/mL,143
same,"glucose concentration, t = 180",[1]; antibiotic 32 μg/mL,142
same,"glucose concentration, t = 240",[1]; antibiotic 32 μg/mL,137
same,MIC,"[1]; Escherichia coli, ATCC25922, E.coli, 80% threshold of reference rate of change, 60 to 180 minutes, N/A = not susceptible, no MIC value can be calculated, read-out: MIC, Measured",4 µg/mL
same,"MIC, EUCAST, range in parentheses",[2]; [4],(2-8) ug/mL
same,"MIC, EUCAST",[2]; [5],4 µg/mL
"CN[C@H](CC(C)C)C(=O)N[C@H]1C(=O)N[C@@H](CC(N)=O)C(=O)N[C@H]2C(=O)N[C@H]3C(=O)N[C@H](C(=O)N[C@H](C(=O)O)c4cc(O)cc(O)c4-c4cc3ccc4O)[C@H](O)c3ccc(c(Cl)c3)Oc3cc2cc(c3O[C@@H]2O[C@H](CO)[C@@H](O)[C@H](O)[C@H]2O[C@H]2C[C@](C)(N)[C@H](O)[C@H](C)O2)Oc2ccc(cc2Cl)[C@H]1O [Vancomycin, vancomycin]","MIC, EUCAST, range in parentheses",[3]; [4],(1-4) ug/mL
same,"MIC, EUCAST",[3]; [5],2 µg/mL
same,F = the rate of change in glucose concentration in relation to the reference,[1]; antibiotic 0.0625 μg/mL,67%
same,dC/dT (rate of change in glucose concentration),[1]; antibiotic 0.0625 μg/mL,42
same,"glucose concentration, t = 60",[1]; antibiotic 0.0625 μg/mL,148
same,"glucose concentration, t = 120",[1]; antibiotic 0.0625 μg/mL,144
same,"glucose concentration, t = 180",[1]; antibiotic 0.0625 μg/mL,65
same,F = the rate of change in glucose concentration in relation to the reference,[1]; antibiotic 0.125 μg/mL,71%
same,dC/dT (rate of change in glucose concentration),[1]; antibiotic 0.125 μg/mL,44
same,"glucose concentration, t = 60",[1]; antibiotic 0.125 μg/mL,153
same,"glucose concentration, t = 120",[1]; antibiotic 0.125 μg/mL,154
same,"glucose concentration, t = 180",[1]; antibiotic 0.125 μg/mL,65
same,F = the rate of change in glucose concentration in relation to the reference,[1]; antibiotic 0.25 μg/mL,68%
same,dC/dT (rate of change in glucose concentration),[1]; antibiotic 0.25 μg/mL,42
same,"glucose concentration, t = 60",[1]; antibiotic 0.25 μg/mL,150
same,"glucose concentration, t = 120",[1]; antibiotic 0.25 μg/mL,145
same,"glucose concentration, t = 180",[1]; antibiotic 0.25 μg/mL,66
same,F = the rate of change in glucose concentration in relation to the reference,[1]; antibiotic 0.5 μg/mL,65%
same,dC/dT (rate of change in glucose concentration),[1]; antibiotic 0.5 μg/mL,41
same,"glucose concentration, t = 60",[1]; antibiotic 0.5 μg/mL,149
same,"glucose concentration, t = 120",[1]; antibiotic 0.5 μg/mL,145
same,"glucose concentration, t = 180",[1]; antibiotic 0.5 μg/mL,68
same,F = the rate of change in glucose concentration in relation to the reference,[1]; antibiotic 1 μg/mL,73%
same,dC/dT (rate of change in glucose concentration),[1]; antibiotic 1 μg/mL,45
same,"glucose concentration, t = 60",[1]; antibiotic 1 μg/mL,155
same,"glucose concentration, t = 120",[1]; antibiotic 1 μg/mL,149
same,"glucose concentration, t = 180",[1]; antibiotic 1 μg/mL,65
same,F = the rate of change in glucose concentration in relation to the reference,[1]; antibiotic 2 μg/mL,65%
same,dC/dT (rate of change in glucose concentration),[1]; antibiotic 2 μg/mL,40
same,"glucose concentration, t = 60",[1]; antibiotic 2 μg/mL,147
same,"glucose concentration, t = 120",[1]; antibiotic 2 μg/mL,151
same,"glucose concentration, t = 180",[1]; antibiotic 2 μg/mL,67
same,F = the rate of change in glucose concentration in relation to the reference,[1]; antibiotic 4 μg/mL,69%
same,dC/dT (rate of change in glucose concentration),[1]; antibiotic 4 μg/mL,43
same,"glucose concentration, t = 60",[1]; antibiotic 4 μg/mL,147
same,"glucose concentration, t = 120",[1]; antibiotic 4 μg/mL,145
same,"glucose concentration, t = 180",[1]; antibiotic 4 μg/mL,61
same,F = the rate of change in glucose concentration in relation to the reference,[1]; antibiotic 8 μg/mL,87%
same,dC/dT (rate of change in glucose concentration),[1]; antibiotic 8 μg/mL,54
same,"glucose concentration, t = 60",[1]; antibiotic 8 μg/mL,159
same,"glucose concentration, t = 120",[1]; antibiotic 8 μg/mL,147
same,"glucose concentration, t = 180",[1]; antibiotic 8 μg/mL,51
